Measurements reported in US12059422B2 (MEI Pharma, Inc., priority 2011, dated 2024).

Key:
[1] = target: T1, PI3K delta (Homo sapiens, UniProt O00329); test: Luciferase-based luminescence assay (KinaseGlo), PI3K delta enzymatic activity; format: biochemical; conditions: for IC50: inhibition of enzymatic activity, KinaseGlo, 25 μM ATP, read-out: IC50 p110δ; for α/δ ratio: ratio of enzymatic IC50 against PI3Kα over IC50 against PI3Kδ; for β/δ ratio / γ/δ ratio: ratio of enzymatic IC50 values, Table 1
T1 construct: purchased Millipore, Billerica, MA, USA
In short: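 KinaseGlo luminescence measured ATP remaining after PIP2 (50 μM) phosphorylation with 25 μM ATP in HEPES pH 7.5 buffer with CHAPS and DTT. Final enzyme was 1.65 nM alpha (1 h reaction) or 6.86 nM delta (2 h reaction). IC50 was curve-fitted from 10 concentrations.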

[2] = target: PI3Kα (Homo sapiens, UniProt P42336); test: ELISA assay for PI3Kα: in-cell ELISA, phosphorylation of AKT (Thr308) in MDA-MB-453 cells; format: cell-based; conditions: cellular, pAKT (Thr308), IGF-1 stimulation, read-out: IC50 p110α
Experimental: PI3K alpha (PI3Kα) activity was determined by measuring the phosphorylation of AKT (Thr308) using an in-cell ELISA assay. MDA-MB-453 (breast carcinoma) cells were obtained from ATCC (ATCC #HTB-131). Growth medium was DMEM (CellGro #CV-10-013-CV) supplemented with 10% fetal bovine serum, 100 IU/mL penicillin, 100 μg/mL streptomycin, and 1×MEM non-essential amino acids. Phosphate buffered saline (PBS) contained 2.7 M NaCl, 54 mM KCl, 86 mM […] (dibasic, anhydrous), and 28 mM […] (monobasic, anhydrous) at pH 7.2. Stimulation mixture (10×) was 1000 ng/mL LONG® R^3 human IGF-1 (Sigma #I1271) diluted in serum-free DMEM medium (CellGro #CV-10-013-CV). Compounds for testing were dissolved and serially diluted in 100% DMSO (total of 10 concentrations), then diluted in serum-free DMEM to 2× final assay concentration. Fixative solution (2×) was 8% formaldehyde (Amresco #M134) diluted in PBS. Permeabilization solution was PBS supplemented with 0.1% Triton X-100. Blocking buffer was obtained from LiCor (LiCor #927-40000). Wash buffer was PBS supplemented with 0.1% Tween-20. Primary antibody solution was rabbit anti-pAKT^T308 monoclonal antibody (Cell Signaling #2965) and mouse anti-total S6 (Santa Cruz #74459) diluted 1:500 and 1:2000, respectively, in the blocking buffer. Secondary antibody solution was IRDye 800CW-conjugated goat anti-rabbit IgG (LiCor #926-32211) and IRDye 680LT-conjugated goat anti-mouse IgG (LiCor #926-68020) diluted 1:1000 and 1:2000, respectively, in the blocking buffer.
MDA-MB-453 cells were subcultured in growth medium and seeded into flat, clear bottom, 96-well plates (Corning #3904) at 40000 cells/well, then incubated overnight in a 5% CO2 incubator at 37° C. Growth medium in plates was replaced with 100 μL/well serum-free DMEM and incubated overnight at 37° C. in a 5% CO2 incubator. Fresh serum-free DMEM (50 μL/well) was added to plates. Compound treatment was performed by adding 50 μL/well of 2× compound mixture to plates and incubating for 1 hr at 37° C. and 5% CO2, after which 11 μL/well of 10× stimulation mixture was added and plates were incubated for 10 min at 37° C. and 5% CO2. Fixation was performed by adding 110 μL/well of 2× fixative solution to the plates and incubating for 20 min at room temperature. Permeabilization was performed by replacing fixation solution with 150 μL/well permeabilization solution and incubating for 10 min at room temperature. Permeabilization was repeated (for a total of 2 times). Permeabilization solution was replaced with 100 μL/well blocking buffer and plates were incubated for 1 hour at room temperature, after which 100 μL/well of primary antibody solution was added and plates were incubated overnight at 4° C. Plates were washed with wash buffer, after which 100 μL/well of secondary antibody solution was added to the plates and incubated in the dark for 1 hr at room temperature. Plates were washed with wash buffer, followed by a wash with PBS. After completely removing PBS, plates were scanned on the Licor Odyssey Imager. Images were quantified using Licor Odyssey application software. IC50 values were determined by curve fitting using a Collaborative Drug Discovery database (www.collaborativedrug.com).

Chain of PI3Kα (P27986 2-724): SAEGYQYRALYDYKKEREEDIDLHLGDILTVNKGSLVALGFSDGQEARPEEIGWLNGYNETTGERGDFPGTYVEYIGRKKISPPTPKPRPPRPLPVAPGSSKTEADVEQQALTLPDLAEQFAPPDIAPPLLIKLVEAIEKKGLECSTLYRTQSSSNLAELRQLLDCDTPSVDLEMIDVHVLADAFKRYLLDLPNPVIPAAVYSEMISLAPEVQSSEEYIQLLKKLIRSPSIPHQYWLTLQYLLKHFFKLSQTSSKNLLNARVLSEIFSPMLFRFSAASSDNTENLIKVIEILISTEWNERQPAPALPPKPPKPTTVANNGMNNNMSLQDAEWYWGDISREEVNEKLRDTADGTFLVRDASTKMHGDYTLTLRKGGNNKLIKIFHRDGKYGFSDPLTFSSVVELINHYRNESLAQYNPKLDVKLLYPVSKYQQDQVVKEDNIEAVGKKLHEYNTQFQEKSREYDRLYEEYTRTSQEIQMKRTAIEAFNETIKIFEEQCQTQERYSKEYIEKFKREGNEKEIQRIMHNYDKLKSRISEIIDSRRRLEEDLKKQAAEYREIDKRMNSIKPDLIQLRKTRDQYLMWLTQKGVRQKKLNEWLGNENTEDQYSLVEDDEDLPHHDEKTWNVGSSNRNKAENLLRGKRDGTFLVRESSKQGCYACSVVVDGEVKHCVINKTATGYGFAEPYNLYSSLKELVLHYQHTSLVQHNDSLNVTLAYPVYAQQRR
Chain of PI3Kα (P42336 whole entry): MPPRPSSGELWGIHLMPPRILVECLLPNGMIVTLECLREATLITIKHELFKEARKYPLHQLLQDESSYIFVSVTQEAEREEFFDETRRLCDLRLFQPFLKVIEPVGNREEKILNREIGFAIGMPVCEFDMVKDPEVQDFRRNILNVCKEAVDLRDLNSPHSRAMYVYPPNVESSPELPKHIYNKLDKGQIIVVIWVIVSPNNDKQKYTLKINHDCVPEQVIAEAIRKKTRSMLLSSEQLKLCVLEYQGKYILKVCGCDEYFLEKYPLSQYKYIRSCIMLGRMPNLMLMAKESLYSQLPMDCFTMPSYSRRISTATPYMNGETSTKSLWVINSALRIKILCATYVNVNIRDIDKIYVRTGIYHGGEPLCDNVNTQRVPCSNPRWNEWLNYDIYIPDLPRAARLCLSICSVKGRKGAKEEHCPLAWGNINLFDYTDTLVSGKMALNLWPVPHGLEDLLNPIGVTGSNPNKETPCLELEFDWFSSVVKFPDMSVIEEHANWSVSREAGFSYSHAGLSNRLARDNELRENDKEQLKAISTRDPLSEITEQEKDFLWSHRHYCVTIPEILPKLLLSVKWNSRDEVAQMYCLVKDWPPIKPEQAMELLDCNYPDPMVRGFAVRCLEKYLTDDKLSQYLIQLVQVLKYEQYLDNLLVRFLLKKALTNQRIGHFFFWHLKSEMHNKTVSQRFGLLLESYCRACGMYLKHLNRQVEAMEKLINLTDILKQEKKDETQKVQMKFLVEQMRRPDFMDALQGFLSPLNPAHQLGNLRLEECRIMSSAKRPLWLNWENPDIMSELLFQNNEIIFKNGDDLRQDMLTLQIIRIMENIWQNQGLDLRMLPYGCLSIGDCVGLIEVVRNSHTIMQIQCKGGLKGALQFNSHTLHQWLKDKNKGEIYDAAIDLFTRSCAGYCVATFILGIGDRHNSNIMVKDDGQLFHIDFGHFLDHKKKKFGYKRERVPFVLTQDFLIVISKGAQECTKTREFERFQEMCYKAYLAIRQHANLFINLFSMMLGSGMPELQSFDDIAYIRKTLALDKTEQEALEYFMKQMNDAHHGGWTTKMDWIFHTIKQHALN
T1 sequence (O00329 whole entry, species assumed): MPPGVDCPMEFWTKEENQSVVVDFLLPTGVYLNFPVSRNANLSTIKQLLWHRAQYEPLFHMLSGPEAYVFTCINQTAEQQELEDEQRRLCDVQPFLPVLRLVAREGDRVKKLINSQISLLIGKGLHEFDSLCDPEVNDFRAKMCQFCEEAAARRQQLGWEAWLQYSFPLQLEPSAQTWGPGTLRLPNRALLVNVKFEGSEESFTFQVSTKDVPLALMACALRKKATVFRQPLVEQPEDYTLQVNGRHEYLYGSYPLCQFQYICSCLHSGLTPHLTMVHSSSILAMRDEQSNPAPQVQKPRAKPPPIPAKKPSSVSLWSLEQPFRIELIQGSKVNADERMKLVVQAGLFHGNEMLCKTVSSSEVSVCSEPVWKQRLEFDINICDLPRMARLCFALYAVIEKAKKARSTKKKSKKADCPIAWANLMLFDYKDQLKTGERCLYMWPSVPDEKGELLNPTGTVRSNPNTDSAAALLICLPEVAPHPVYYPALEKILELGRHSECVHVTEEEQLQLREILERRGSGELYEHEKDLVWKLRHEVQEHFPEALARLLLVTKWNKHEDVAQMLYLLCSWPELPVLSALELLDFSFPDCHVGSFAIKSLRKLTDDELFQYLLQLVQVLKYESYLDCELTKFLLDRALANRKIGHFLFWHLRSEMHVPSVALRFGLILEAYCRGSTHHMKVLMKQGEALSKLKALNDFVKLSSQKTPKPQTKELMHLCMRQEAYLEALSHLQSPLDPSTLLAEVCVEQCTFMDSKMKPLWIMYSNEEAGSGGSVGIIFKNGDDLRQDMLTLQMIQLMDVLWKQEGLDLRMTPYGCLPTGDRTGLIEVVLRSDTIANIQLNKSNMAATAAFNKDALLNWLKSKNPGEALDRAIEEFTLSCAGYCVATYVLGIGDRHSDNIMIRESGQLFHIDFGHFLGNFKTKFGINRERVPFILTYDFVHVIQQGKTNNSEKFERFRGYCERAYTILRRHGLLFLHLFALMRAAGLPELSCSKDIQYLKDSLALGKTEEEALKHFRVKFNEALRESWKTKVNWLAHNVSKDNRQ
T1 sequence (P27986 whole entry partner, species assumed): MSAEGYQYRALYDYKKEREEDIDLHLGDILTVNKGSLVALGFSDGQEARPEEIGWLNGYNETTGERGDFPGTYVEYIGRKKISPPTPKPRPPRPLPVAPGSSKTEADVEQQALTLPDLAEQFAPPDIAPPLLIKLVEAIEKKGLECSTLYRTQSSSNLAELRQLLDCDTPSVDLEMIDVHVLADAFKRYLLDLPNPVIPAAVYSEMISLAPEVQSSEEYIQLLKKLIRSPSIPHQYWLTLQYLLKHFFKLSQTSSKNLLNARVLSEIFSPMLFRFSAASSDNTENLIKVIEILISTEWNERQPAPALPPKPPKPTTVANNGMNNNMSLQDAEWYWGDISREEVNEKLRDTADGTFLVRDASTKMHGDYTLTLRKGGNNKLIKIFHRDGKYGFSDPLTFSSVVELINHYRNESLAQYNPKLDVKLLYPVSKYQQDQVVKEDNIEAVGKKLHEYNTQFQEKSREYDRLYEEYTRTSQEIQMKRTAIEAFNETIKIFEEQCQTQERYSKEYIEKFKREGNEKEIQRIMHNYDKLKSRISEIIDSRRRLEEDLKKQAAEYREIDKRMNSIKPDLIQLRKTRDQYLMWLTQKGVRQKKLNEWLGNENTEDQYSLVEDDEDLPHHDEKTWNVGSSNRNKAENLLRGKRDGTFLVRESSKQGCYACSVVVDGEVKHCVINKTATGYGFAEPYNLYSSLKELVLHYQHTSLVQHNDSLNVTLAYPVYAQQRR

Row | SMILES | IC50 [1] [nM] | α/δ ratio [1] | β/δ ratio [1] | γ/δ ratio [1] | IC50 [2] [nM]
1 | CC(C)(Cc1ccccc1-c1ccccc1F)Nc1nc(N2CCOCC2)nc(-n2c(C(F)F)nc3ccccc32)n1 [Compound A59, 4-(2-(difluoromethyl)-1H-benzo[d]imidazol-1-yl)-N-(1-(2′-fluorobiphenyl-2-yl)-2-methylpropan-2-yl)-6-morpholino-1,3,5-triazin-2-amine] | ≤ 100 | A’ | A’ | A’ | > 500
2 | Cc1ccccc1-c1ccccc1CC(C)(C)Nc1nc(N2CCOCC2)nc(-n2c(C(F)F)nc3ccccc32)n1 [Compound A60, 4-(2-(difluoromethyl)-1H-benzo[d]imidazol-1-yl)-N-(2-methyl-1-(2′-methylbiphenyl-2-yl)propan-2-yl)-6-morpholino-1,3,5-triazin-2-amine] | ≤ 100 | A’ | D’ | A’ | > 500
3 | CC(C)(Cc1ccccc1-c1ccccc1Cl)Nc1nc(N2CCOCC2)nc(-n2c(C(F)F)nc3ccccc32)n1 [Compound A61, 4-(2-(difluoromethyl)-1H-benzo[d]imidazol-1-yl)-N-(1-(6′-chlorobiphenyl-2-yl)-2-methylpropan-2-yl)-6-morpholino-1,3,5-triazin-2-amine] | ≤ 100 | A’ | D’ | A’ | > 500
4 | CC(C)(Cc1ccccc1-c1cccnc1F)Nc1nc(N2CCOCC2)nc(-n2c(C(F)F)nc3ccccc32)n1 [Compound A62] | ≤ 100 | A’ | A’ | A’ | > 500
5 | CC(C)(Cc1ccccc1-c1cncnc1)Nc1nc(N2CCOCC2)nc(-n2c(C(F)F)nc3ccccc32)n1 [Compound A63, 4-(2-(difluoromethyl)-1H-benzo[d]imidazol-1-yl)-N-(2-methyl-1-(2-(pyrimidin-5-yl)phenyl)propan-2-yl)-6-morpholino-1,3,5-triazin-2-amine] | ≤ 100 | A’ | A’ | A’ | > 500
6 | CN1CCN(c2cc(-c3ccccc3CC(C)(C)Nc3nc(N4CCOCC4)nc(-n4c(C(F)F)nc5ccccc54)n3)ccn2)CC1 [Compound A64, 4-(2-(difluoromethyl)-1H-benzo[d]imidazol-1-yl)-N-(2-methyl-1-(2-(2-(4-methylpiperazin-1-yl)pyridin-4-yl)phenyl)propan-2-yl)-6-morpholino-1,3,5-triazin-2-amine] | ≤ 100 | A’ | D’ | A’ | > 500
7 | CC(C)(Cc1ccccc1-c1cccc(CN2CCOCC2)c1)Nc1nc(N2CCOCC2)nc(-n2c(C(F)F)nc3ccccc32)n1 [Compound A65, 4-(2-(difluoromethyl)-1H-benzo[d]imidazol-1-yl)-N-(2-methyl-1-(3′-(morpholinomethyl)biphenyl-2-yl)propan-2-yl)-6-morpholino-1,3,5-triazin-2-amine] | ≤ 100 | A’ | D’ | D’ | > 500
8 | COc1cccc(-c2ccccc2CC(C)(C)Nc2nc(N3CCOCC3)nc(-n3c(C(F)F)nc4ccccc43)n2)c1 [Compound A66, 4-(2-(difluoromethyl)-1H-benzo[d]imidazol-1-yl)-N-(1-(3′-methoxybiphenyl-2-yl)-2-methylpropan-2-yl)-6-morpholino-1,3,5-triazin-2-amine] | ≤ 100 | A’ | A’ | A’ | > 500
9 | COc1ccc(-c2ccccc2CC(C)(C)Nc2nc(N3CCOCC3)nc(-n3c(C(F)F)nc4ccccc43)n2)cc1 [Compound A67, 4-(2-(difluoromethyl)-1H-benzo[d]imidazol-1-yl)-N-(1-(4′-methoxybiphenyl-2-yl)-2-methylpropan-2-yl)-6-morpholino-1,3,5-triazin-2-amine] | ≤ 100 | A’ | B’ | A’ | > 500
10 | CC(C)(Cc1ccccc1C1CCNCC1)Nc1nc(N2CCOCC2)nc(-n2c(C(F)F)nc3ccccc32)n1 [Compound A68, 4-(2-(difluoromethyl)-1H-benzo[d]imidazol-1-yl)-N-(2-methyl-1-(2-(piperidin-4-yl)phenyl)propan-2-yl)-6-morpholino-1,3,5-triazin-2-amine] | ≤ 100 | A’ | A’ | A’ | > 500
11 | CCN1CCC(c2ccccc2CC(C)(C)Nc2nc(N3CCOCC3)nc(-n3c(C(F)F)nc4ccccc43)n2)CC1 [Compound A70, 4-(2-(difluoromethyl)-1H-benzo[d]imidazol-1-yl)-N-(1-(2-(1-ethylpiperidin-4-yl)phenyl)-2-methylpropan-2-yl)-6-morpholino-1,3,5-triazin-2-amine] | ≤ 100 | A’ | A’ | A’ | > 500
12 | CC(C)N1CCC(c2ccccc2CC(C)(C)Nc2nc(N3CCOCC3)nc(-n3c(C(F)F)nc4ccccc43)n2)CC1 [Compound A71, 4-(2-(difluoromethyl)-1H-benzo[d]imidazol-1-yl)-N-(1-(2-(1-isopropylpiperidin-4-yl)phenyl)-2-methylpropan-2-yl)-6-morpholino-1,3,5-triazin-2-amine] | ≤ 100 | A’ | A’ | A’ | > 500
13 | CC(=O)N1CCC(c2ccccc2CC(C)(C)Nc2nc(N3CCOCC3)nc(-n3c(C(F)F)nc4ccccc43)n2)CC1 [Compound A72, 4-(2-(difluoromethyl)-1H-benzo[d]imidazol-1-yl)-N-(2-methyl-1-(2-(1-acetylpiperidin-4-yl)phenyl)propan-2-yl)-6-morpholino-1,3,5-triazin-2-amine] | ≤ 100 | A’ | D’ | C’ | 200 to 500
14 | CC(C)(Cc1ccccc1C1CCN(S(C)(=O)=O)CC1)Nc1nc(N2CCOCC2)nc(-n2c(C(F)F)nc3ccccc32)n1 [Compound A73, 4-(2-(difluoromethyl)-1H-benzo[d]imidazol-1-yl)-N-(2-methyl-1-(2-(1-(methylsulfonyl)piperidin-4-yl)phenyl)propan-2-yl)-6-morpholino-1,3,5-triazin-2-amine] | ≤ 100 | A’ | D’ | B’ | 200 to 500
15 | CC(C)(Cc1ccccc1C1CCNC1)Nc1nc(N2CCOCC2)nc(-n2c(C(F)F)nc3ccccc32)n1 (centres unmarked) [Compound A74, 4-(2-(difluoromethyl)-1H-benzo[d]imidazol-1-yl)-N-(2-methyl-1-(2-(pyrrolidin-3-yl)phenyl)propan-2-yl)-6-morpholino-1,3,5-triazin-2-amine] | ≤ 100 | A’ | A’ | A’ | > 500
16 | CN(C)CCCc1ccccc1CC(C)(C)Nc1nc(N2CCOCC2)nc(-n2c(C(F)F)nc3ccccc32)n1 [Compound A76, 4-(2-(difluoromethyl)-1H-benzo[d]imidazol-1-yl)-N-(1-(2-(3-(dimethylamino)propyl)phenyl)-2-methylpropan-2-yl)-6-morpholino-1,3,5-triazin-2-amine] | ≤ 100 | A’ | A’ | A’ | > 500
